This is an account of results in paper PMC6770071, “XIAP as a Target of New Small Organic Natural Molecules Inducing Human Cancer Cell Death” (Cancers, 2019).

Structures are written as SMILES. In brackets after ≈: the same amount, converted by molar mass. Where two headings read alike, the source gives them in different places.

Assay [1] concerns MCF7 cells. The assay is described as follows: TUNEL assay. The class given is cell-based, human. The following applies: MCF7, 12 h; gibbilimbol B/eriopodol A 30 µg/mL, erioquinol 10 µg/mL. The protocol:
Using published protocols, MCF7 or U373 cells cultured in 120-mm coverslips were fixed in 4% paraformaldehyde in 0.1 M phosphate buffer (PB), pH 7.4, for 10 min. The TUNEL method (DeadEnd Fluorometric TUNEL System, Promega) was used to assay apoptosis, according to the manufacturer’s protocol. DAPI (nuclei detection) staining was also performed.

Assay [2] has as its system MCF7 cells. The assay is described as follows: MTT cell viability assay, MCF7 cells. The class given is cell-based, human. Particulars: for IC50: Homo sapiens, MTT; for loss of cell viability (MTT) with simultaneous 50 µM Z-VAD-(OMe)-FMK: MCF7, 6 h, gibbilimbol B/eriopodol A 30 µg/mL, erioquinol 10 µg/mL. The protocol:
(§1) Human U373 glioma, MCF7 breast cancer, A549 lung cancer and PC-3 prostate cancer cells were grown in Dulbecco’s Modified Eagle Medium (DMEM), supplemented with 10% foetal bovine serum, 2 mM glutamine, 100 U/mL penicillin/streptomycin, at 37 °C in a humidified atmosphere containing 5% CO2 (logarithmic growth phase, routine passages every 3 days). The human breast epithelial cell line MCF10 was cultured in DMEM/F12 Ham’s Mixture supplemented with 5% horse serum, epithelial growth factor 20 ng/mL, insulin 10 μg/mL, hydrocortisone 0.5 mg/mL, cholera toxin 100 ng/mL, and 100 U/mL penicillin/streptomycin. HUVEC were grown in EGM-2 Endothelial Cell Growth Medium-2 BulletKit (Lonza, Basel, Switzerland), according to the manufacturer’s protocol.
(§2) U373, MCF7, A549, PC-3, HUVEC, and MCF10 cell viability was determined by MTT assay using published protocols. MTT absorbance was quantified spectrophotometrically using a Glomax Multi Detection System microplate reader (Promega, Milano, Italy).
(§3) Statistical significance of raw data between the groups in each experiment was evaluated using unpaired Student’s t-test (single comparisons) or one-way ANOVA followed by the Newman-Keuls post-test (multiple comparisons). The IC50 and Emax concentration were determined by non-linear regression curve analysis of the concentration-effect responses. Potency values among concentration-response curves were compared with the F-test. Data belonging from different experiments were represented and averaged in the same graph. The GraphPad Prism software package (GraphPad Software, San Diego, CA, USA) was used. The results were expressed as means ± standard error of mean (SEM) of the indicated n values.

The subject of assay [3] is U373 cells. The assay is described as follows: TMRM mitochondrial membrane potential analysis, U373 cells. The class given is cell-based, human. The following applies: U373, increasing time; gibbilimbol B/eriopodol A 30 µg/mL, erioquinol 10 µg/mL. The protocol: (§4) Using published protocols, mitochondria of MCF7 and U373 cells were labeled using TMRM, a voltage-sensitive cationic lipophilic dye, partitioning and accumulating in the mitochondrial matrix based upon the Nernst equation. After treatments, cells were trypsinised, counted and incubated with 100 nM TMRM for 30 min at 37 °C. Fluorescence was measured by using a Glomax Multi Detection System microplate reader (Promega), excitation wavelength: 525 nm; emission wavelength: 580–640 nm). After background subtraction, the data were normalised on cell number.

In assay [4] the test system is U373 cells. Kind of assay: ROS detection with DCFH-DA, U373 cells. The class given is cell-based, human. The following applies: U373, 6 h; gibbilimbol B/eriopodol A 30 µg/mL, erioquinol 10 µg/mL. The procedure:
(§5) MCF7 or U373 cells cultured in 120-mm coverslips were exposed to 30 µM DCFH-DA (0.1 M PB, pH 7.4) and fixed in 4% paraformaldehyde for 20 min. For fluorescence detection, coverslips were mounted on glass slides and observed with a laser-scanning confocal microscope (TCS SP8 System and Application suite X, Leica Microsystems). DAPI and fluorescein phalloidin (nuclei and cytoskeleton detection, respectively) staining was also used.

For assay [5], the system named is MCF7 cells. Kind of assay: ROS detection with DCFH-DA, MCF7 cells. It is filed as cell-based, human. Particulars: MCF7, 6 h; gibbilimbol B/eriopodol A 30 µg/mL, erioquinol 10 µg/mL. The procedure: as §5
A further assay has as its system MCF10 cells. The assay is described as follows: MTT cell viability assay, MCF10 cells. The class given is cell-based. Particulars: Homo sapiens, 24 h, non-tumourigenic breast MCF10 cells. The protocol:
as §1, with “HUVEC were grown in EGM-2 Endothelial Cell Growth Medium-2 BulletKit (Lonza, Basel, Switzerland), according to the manufacturer’s protocol.” left out
as §2
Statistical significance of raw data between the groups in each experiment was evaluated using unpaired Student’s t-test (single comparisons) or one-way ANOVA followed by the Newman-Keuls post-test (multiple comparisons). The IC50 and Emax concentration were determined by non-linear regression curve analysis of the concentration-effect responses. […] The results were expressed as means ± standard error of mean (SEM) of the indicated n values.
On the technique in general: Formazan colour is commonly taken as a measure of viable cells.

In assay [6] the test system is MCF7 cells. Kind of assay: TMRM mitochondrial membrane potential analysis, MCF7 cells. The class given is cell-based, human. The following applies: gibbilimbol B/eriopodol A 30 µg/mL, erioquinol 10 µg/mL; for TMRM fluorescence (mitochondria membrane potential): MCF7, increasing time; for time to full response of TMRM fluorescence decrease: MCF7. The procedure: as §4

For the next assay, the system named is caspase 9 and 7. The assay is described as follows: Cleaved-caspase 9 and 7 western blot / immunofluorescence in MCF7 cells. The class given is cell-based, human. The following applies: gibbilimbol B/eriopodol A 30 µg/mL, erioquinol 10 µg/mL; for cleaved-caspase 7 staining, immunofluorescence: MCF7, 3 and 6 h; for caspase activation, western blot: MCF7, 3 h and 6 h. The protocol: Using published protocols, MCF7 or U373 cells cultured in 120-mm coverslips were fixed in 4% paraformaldehyde in 0.1 M PB, pH 7.4, for 10 min. Cells were pre-incubated for 1 h min with 5% of normal goat serum (Life Technologies, Monza, Italy) in 0.1 M PB (pH 7.4) containing 0.1% Triton X-100, before overnight incubation with the rabbit monoclonal anti-cleaved caspase 7 (Cell Signaling Technology, Danvers, MA, USA). In double-label immunofluorescence experiments, the mouse monoclonal anti-cytochrome c primary antibody (Cell Signaling Technology) was used in conjunction with the rabbit monoclonal primary antibody directed to COX IV (Cell Signaling Technology). For fluorescence detection, coverslips were stained with the appropriate Alexa Fluor secondary antibodies (Life Technologies) and mounted on glass slides in a ProLong Gold Antifade Mountant (Life Technologies). DAPI and/or fluorescein phalloidin (cytoskeleton detection) staining was also used. Cells were analysed with a DMI4000 B automated inverted microscope equipped with a DCF310 digital camera (Leica Microsystems, Wetzlar, Germany). When indicated, confocal imaging was performed with a TCS SP8 System (Leica Microsystems). Image acquisitions were controlled by the Leica Application Suite X.
Using published protocols, MCF7 and MCF10 cells were homogenised in RIPA lysis buffer, supplemented with a cocktail of protease inhibitors (cOmplete; Roche Diagnostics, Milano, Italy). Equal amounts of proteins were separated by 4–20% SDS-polyacrylamide gel electrophoresis (Criterion TGX Stain-free precast gels and Criterion Cell system; Bio-Rad, Hercules, CA, USA) and transferred onto nitrocellulose membrane using a Bio-Rad Trans-Blot Turbo System. When indicated, the membranes were probed using the rabbit monoclonal anti-cleaved caspase 7 and anti-XIAP (Cell Signaling Technology) primary antibodies. After the incubation with the appropriate horseradish-peroxidase-conjugated secondary antibody (Cell Signaling Technology), bands were visualised using the Clarity Western ECL substrate with a ChemiDoc MP imaging system (Bio-Rad). To monitor for potential artefacts in loading and transfer among samples in different lanes, the blots were routinely treated with the Restore Western Blot Stripping Buffer (ThermoFisher Scientific) and re-probed with the goat anti-Lactate dehydrogenase (LDH)-A (Santa Cruz Biotechnology) and the mouse anti-vinculin primary antibodies. The stain-free gel was used as loading control as well. When appropriated, bands were quantified for densitometry using the Bio-Rad Image Lab software.

The subject of assay [7] is U373 cells. The assay is described as follows: MTT cell viability assay, U373 cells. Particulars: for IC50: Homo sapiens, U373 MG, MTT, 24 h, read-out: IC50 (μg/mL) U373 Cells. The class given is cell-based, human. The procedure:
as §1, §2, §3

[8] abbreviates: MCF7, 24 h (Table 1), read-out: IC50 (μg/mL) MCF7 Cells.
Setting [9] is: MCF7, 6 h exposure (time-response), read-out: IC50.
Setting [10] is: MCF7, 12 h exposure (time-response), read-out: IC50.

For `CCCCCC/C=C\CCC1(O)C=CC(=O)C=C1` [Erioquinol, (Z)-4-(dec-3′-enyl)-4-hydroxycyclohexa-2,5-dien-1-one], the “TUNEL staining (DNA fragmentation)” value with MCF7 cells [1] is “DNA fragmented cells were few”. The IC50 came out at 2.63 µg/mL (≈ 10.6 µM) in the assay on MCF7 cells [2] (setting [8]); 14.7 µg/mL (≈ 59.3 µM) in the assay with MCF7 cells [2] (setting [9]); 4.25 µg/mL (≈ 17.1 µM) with MCF7 cells [2] (setting [10]); 1.93 µg/mL (≈ 7.77 µM) in the assay with MCF7 cells [2] (MCF7, 24 h exposure (time-response), read-out: IC50); 1.7 µg/mL (≈ 6.84 µM) in the assay on MCF10 cells; 1.78 µg/mL (≈ 7.17 µM) in the assay on U373 cells [7]. Besides, in the assay with MCF7 cells [2], the “loss of cell viability (MTT) with simultaneous 50 µM Z-VAD-(OMe)-FMK” value is reported as “did not affect”. Besides, the “concentration-dependent inhibition of MTT absorbance with 50 µM necrostatin-1 and 10 µM ferrostatin-1” value is listed as “did not change” in the assay on MCF7 cells [2] (MCF7, 24 h, 2 h pre-treatment with inhibitors) and “did not change” in the assay on U373 cells [7] (U373, 24 h, 2 h pre-treatment with inhibitors). In addition, the “TMRM fluorescence (mitochondria membrane potential)” value in the assay on U373 cells [3] and in the assay on MCF7 cells [6] was “comparable decrease in TMRM fluorescence vs. control” in each case. The “ROS (DCFH-DA staining)” value in the assay on U373 cells [4] and with MCF7 cells [5] was “marked accumulation of ROS” in each case. Besides, the “time to full response of TMRM fluorescence decrease” value in the assay on MCF7 cells [6] is on record as not above 1 h. Further, in the assay on caspase 9 and 7, the “cleaved-caspase 7 staining, immunofluorescence” value is reported as “positive cells were absent”. The “caspase activation, western blot” value in the assay on caspase 9 and 7 was “did not display any sign of caspase 7 activity”.
For the compound `CCCCCC/C=C/CCc1ccc(O)cc1` [Gibbilimbol B, (E)-4-(dec-3′-enyl)phenol], in the assay with MCF7 cells [1], the “TUNEL staining (DNA fragmentation)” value is “inter-nucleosomal degradation of genomic DNA typical of late apoptotic cells”. Moreover, the IC50 in the assay with MCF7 cells [2] (setting [8]) was 16.4 µg/mL (≈ 70.8 µM); in the assay on MCF7 cells [2] (setting [9]) it was 20.3 µg/mL (≈ 87.4 µM); with MCF7 cells [2] (setting [10]) it was 27.4 µg/mL (≈ 118 µM); in the assay with MCF10 cells it was 17.1 µg/mL (≈ 73.6 µM); with U373 cells [7] it was 16.8 µg/mL (≈ 72.3 µM). In the assay on MCF7 cells [2], the “loss of cell viability (MTT) with simultaneous 50 µM Z-VAD-(OMe)-FMK” value is given as “significantly inhibited”. In addition, the “TMRM fluorescence (mitochondria membrane potential)” value in the assay with U373 cells [3] and in the assay on MCF7 cells [6] was “comparable decrease in TMRM fluorescence vs. control” throughout. Further, the “ROS (DCFH-DA staining)” value in the assay on U373 cells [4] and in the assay on MCF7 cells [5] was “absent” each time. In addition, the “time to full response of TMRM fluorescence decrease” value in the assay with MCF7 cells [6] is reported as not above 1 h. In addition, in the assay with caspase 9 and 7, the “cleaved-caspase 7 staining, immunofluorescence” value was “intensive cleaved-caspase 7 staining”. The “caspase activation, western blot” value in the assay on caspase 9 and 7 was “activation of caspase 9 and 7”.
